Results taken from patent publication US10730850B2, “Pyridinylmethyl carbamimidoylcarbamate derivatives and their use as AOC3 inhibitors” (Boehringer Ingelheim International GmbH, priority 2016, dated 2020).
Read-outs that look alike come from different tables or passages of the source.

How the values were obtained:
[1] = tested on: hepatocytes; assay: Metabolic stability assay in hepatocyte suspension; format: in vitro ADME; conditions: 1 μM test compound
Procedure: The metabolic degradation of the test compound is assayed in a hepatocyte suspension. Hepatocytes (typically cryopreserved) are incubated in an appropriate buffer system (e.g. Dulbecco's modified eagle medium plus 3.5 μg glucagon/500 mL, 2.5 mg insulin/500 mL and 3.75 mg/500 mL hydrocortison) containing 5% species serum. Following a (typically) 30 min preincubation in an incubator (37° C., 10% CO2) 5 μl of test compound solution (80 μM; from 2 mM in DMSO stock solution diluted 1:25 with medium) are added into 395 μl hepatocyte suspension (cell density in the range 0.25-5 Mio cells/mL, typically 1 Mio cells/mL; final concentration of test compound 1 μM, final DMSO concentration 0.05%). The cells are incubated for six hours (incubator, orbital shaker) and samples (25 μl) are taken at 0, 0.5, 1, 2, 4 and 6 hours. Samples are transferred into acetonitrile and pelleted by centrifugation (5 min). The supernatant is transferred to a new 96-deepwell plate, evaporated under nitrogen and resuspended. Decline of parent compound is analyzed by HPLC-MS/MS
CLint is calculated as follows CL_INTRINSIC=Dose/AUC=(C0/CD)/(AUD+clast/k)×1000/60. C0: initial concentration in the incubation [μM], CD: cell density of vital cells [10e6 cells/mL], AUD: area under the data [μM×h], clast: concentration of last data point [μM], k: slope of the regression line for parent decline [h-1].
The calculated in vitro hepatic intrinsic clearance can be scaled up to the intrinsic in vivo hepatic Clearance and used to predict hepatic in vivo blood clearance (CL) by the use of a liver model (well stirred model). CL_INTRINSIC_INVIVO [ml/min/kg]=(CL_INTRINSIC [μL/min/10e6 cells]×hepatocellularity [10e6 cells/g liver]×liver factor [g/kg bodyweight])/1000 CL [ml/min/kg]=CL_INTRINSIC_INVIVO [ml/min/kg]×hepatic blood flow [ml/min/kg]/(CL_INTRINSIC_INVIVO [ml/min/kg]+hepatic blood flow [ml/min/kg])

[2] = target: AOC3 (Homo sapiens (Human), UniProt Q16853); assay: MAO-Glo AOC3 assay (recombinant CHO cells overexpressing AOC3); format: biochemical
Description: The MAO-Glo™ Assay (commercial available from PROMEGA, # V1402) provides a sensitive method for the measurement of monoamine oxidase (MAO) activity (Valley, M. P. et al., 2006, Anal. Biochem. 359: 238-246) from a variety of tissues, biofluids or recombinant expressed or purified enzymes. As substrate a derivate of the beetle luciferin ((4S)-4,5-dihydro-2-(6-hydroxybenzothiazolyl)-4-thiazole-carboxylic acid) is used, which is oxidized at a primary amine moiety. After a spontaneous elimination and a catalyzed esterase reaction, the turnover of the luciferine by the luciferase is recorded as a signal of AOC3 activity.
An aliquot of 3 μL of the compound dilution is added to a 384 well plate (Optiplate, PS, flat bottom, white, PERKIN ELMER, #6007290) with a final DMSO concentration of 6.6%. Recombinant CHO cells, overexpressing the human (1500 cells/well), mouse (1000 cells/well) or rat (500 cells/well) AOC3 enzyme are diluted in reaction buffer and added in a volume of 15 μL to the wells. After incubation for 20 minutes at 37° C., 2 μL of MAO substrate (dissolved in DMSO at 16 mM, adjusted to assay concentration in reaction buffer to a final assay concentration of 20 μM) is added and further incubated for 60 minutes at 37° C. The turnover of the substrate is determined by the addition of 20 μL of the detection-mix which was generated by the addition of reconstitution buffer with esterase (PROMEGA, # V1402) to the luciferine detection reagent (PROMEGA, # V1402). After an incubation period of 20 minutes, the luminescent signal is measured with Envision 2104 Multilabel Reader (PERKIN ELMER).
In the following table the activity expressed as IC50 (nM) of compounds according to the invention is presented wherein the IC50 values are determined in the MAO-Glo™ AOC3 assay as described hereinbefore. The term “Example” refers to the example numbers according to the following experimental section.

[3] = Table 3, comparative compounds of EP 2 695 881
[4] = Table 2, comparative compounds of EP 2 695 881, read-out: IC50

Sequence of AOC3 (Q16853 whole entry): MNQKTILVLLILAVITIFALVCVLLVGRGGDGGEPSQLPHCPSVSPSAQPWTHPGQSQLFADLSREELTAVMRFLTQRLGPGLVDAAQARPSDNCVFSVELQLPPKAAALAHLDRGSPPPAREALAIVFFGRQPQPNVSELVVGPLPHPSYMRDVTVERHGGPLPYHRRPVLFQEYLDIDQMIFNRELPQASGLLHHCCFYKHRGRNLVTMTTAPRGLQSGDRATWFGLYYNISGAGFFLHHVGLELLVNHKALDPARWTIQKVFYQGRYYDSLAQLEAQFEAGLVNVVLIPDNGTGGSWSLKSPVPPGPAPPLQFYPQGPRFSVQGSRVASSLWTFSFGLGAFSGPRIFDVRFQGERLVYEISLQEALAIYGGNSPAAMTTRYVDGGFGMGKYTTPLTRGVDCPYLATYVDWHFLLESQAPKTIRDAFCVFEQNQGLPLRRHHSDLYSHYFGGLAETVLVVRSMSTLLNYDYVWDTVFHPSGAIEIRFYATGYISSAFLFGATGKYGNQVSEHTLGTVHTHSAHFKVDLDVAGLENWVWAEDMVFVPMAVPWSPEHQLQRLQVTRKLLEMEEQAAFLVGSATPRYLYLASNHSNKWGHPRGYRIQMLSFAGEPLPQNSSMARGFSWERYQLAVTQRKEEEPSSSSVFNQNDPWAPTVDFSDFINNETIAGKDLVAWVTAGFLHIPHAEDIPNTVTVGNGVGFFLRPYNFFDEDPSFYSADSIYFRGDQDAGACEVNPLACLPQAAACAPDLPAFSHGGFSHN

| SMILES | QH ([1]; Table 4) [%] | IC50 ([2]; Table 1, read-out: AOC3 IC50) [nM] | other results |
| --- | --- | --- | --- |
| COc1ccc(N2CCN(c3cccc(COC(=O)NC(=N)N)c3F)CC2)cc1 [57 (227), reference compound] |  |  | QH [1, 3]: 20%; IC50 [2, 4]: 3.9 nM |
| COc1ncc(N2CCN(c3cccc(COC(=O)NC(=N)N)c3F)CC2)cn1 [126 (235), reference compound] |  |  | QH [1, 3]: 11%; IC50 [2, 4]: 3.9 nM |
| CC(=O)N1CCC(C2CN(c3cccc(COC(=O)NC(=N)N)n3)C2)CC1 [Example 1.016] | 6 | 10 |  |
| N=C(N)NC(=O)OCc1ccnc(N2CCC(C3CCOCC3)CC2)c1F [Example 1.023] | 14 | 8 |  |
| Cc1cccc(N2CCN(c3nccc(COC(=O)NC(=N)N)c3F)CC2)c1 [Example 1.031] | 23 | 9 |  |
| N=C(N)NC(=O)OCc1ccnc(N2CCN(c3ccccc3)C(=O)C2)c1F [Example 1.033] | 4 | 6 |  |
| COc1ncc(N2CCN(c3cccc(COC(=O)NC(=N)N)n3)CC2)cn1 [Example 1.036] | 16 | 7 |  |
| N=C(N)NC(=O)OCc1ccnc(N2CC=C(c3ccc(F)cc3)CC2)c1F [Example 1.037] | 20 | 9 |  |
| COc1ncc(N2CCN(c3nccc(COC(=O)NC(=N)N)n3)CC2)cn1 [Example 1.040] | 7 | 7 |  |
| N=C(N)NC(=O)OCc1ccnc(N2CCC(c3ccc(F)cc3)CC2)c1F [Example 1.041] | 12 | 9 |  |
| N=C(N)NC(=O)OCc1ccnc(N2CCN(c3cccc(F)c3)CC2)c1F [Example 1.044] | 56 | 9 |  |
| CC(=O)N1CCC(C2CN(c3nccc(COC(=O)NC(=N)N)c3F)C2)CC1 [Example 1.047] | <4 | 8 |  |
| Cc1cc(C)cc(N2CCN(c3nccc(COC(=O)NC(=N)N)c3F)CC2)c1 [Example 1.061] | 13 | 8 |  |
| COc1cnc(C2=CCN(c3nccc(COC(=O)NC(=N)N)c3F)CC2)nc1 [Example 1.064] | 14 | 6 |  |
| COc1ccc(C2CCN(c3nccc(COC(=O)NC(=N)N)c3F)CC2)cc1 [Example 1.065] | 40 | 5 |  |
| COc1ccc(N2CCN(c3nccc(COC(=O)NC(=N)N)c3F)CC2)cc1 [Example 1.067] | 23 | 5 | QH ([1]; Table 3, compounds of the present invention): 10%; IC50 ([2]; Table 2, compounds of the present invention, read-out: IC50): 4.6 nM |
| COc1cccc(N2CCN(c3nccc(COC(=O)NC(=N)N)c3F)CC2)c1 [Example 1.068] | 23 | 7 |  |
| N=C(N)NC(=O)OCc1ccnc(N2CCC(c3ccc(Cl)cc3)CC2)c1F [Example 1.074] | 24 | 7 |  |
| N=C(N)NC(=O)OCc1ccnc(N2CCN(c3ccc(Cl)cc3)CC2)c1F [Example 1.077] | 30 | 7 |  |
| N=C(N)NC(=O)OCc1ccnc(N2CCN(c3ccc(Cl)cn3)CC2)c1F [Example 1.078] | 14 | 9 |  |
| N=C(N)NC(=O)OCc1ccnc(N2CCN(c3ccc(C(N)=O)cn3)CC2)c1F [Example 1.086] | 11 | 7 |  |
| CNC(=O)c1ccc(N2CCN(c3nccc(COC(=O)NC(=N)N)c3F)CC2)nc1 [Example 1.091] | 7 | 7 |  |
| COC(=O)c1ccc(N2CCN(c3nccc(COC(=O)NC(=N)N)c3F)CC2)nc1 [Example 1.092] | 92 | 9 |  |
| N=C(N)NC(=O)OCc1ccnc(N2CCN(c3ccc(C(F)(F)F)nn3)CC2)c1F [Example 1.099] | 9 | 5 |  |
| CN(C)C(=O)c1ccc(N2CCN(c3nccc(COC(=O)NC(=N)N)c3F)CC2)cc1 [Example 1.100] | 9 | 5 |  |
| CN(C)C(=O)c1ccc(N2CCN(c3nccc(COC(=O)NC(=N)N)c3F)CC2)nc1 [Example 1.101] | <4 | 7 |  |
| CS(=O)(=O)c1ccc(N2CCN(c3nccc(COC(=O)NC(=N)N)c3F)CC2)nc1 [Example 1.103] | <4 | 8 |  |
| N=C(N)NC(=O)OCc1ccnc(N2CCC(C3CCN(S(N)(=O)=O)CC3)CC2)c1F [Example 1.104] | 5 | 9 |  |
| CS(=O)(=O)c1ccc(N2CCN(c3nccc(COC(=O)NC(=N)N)c3F)CC2)c(F)c1 [Example 1.106] | 8 | 6 |  |
| N=C(N)NC(=O)OCc1cccc(N2CCN(c3ccc(C(N)=O)cc3)CC2)c1F [reference compound] |  |  | QH [1, 3]: 47%; IC50 [2, 4]: 2.5 nM |

The next lines start with results.

| QH ([1]; Table 4) [%] | IC50 ([2]; Table 1, read-out: AOC3 IC50) [nM] | SMILES | other results |
| --- | --- | --- | --- |
| 16 | 3 | N=C(N)NC(=O)OCc1ccnc(N2CCC(c3ccncc3)CC2)c1F [Example 1.010] |  |
| <4 | 3 | N=C(N)NC(=O)OCc1ccnc(N2CCN(c3ccncc3)CC2)c1F [Example 1.011] |  |
| 6 | 3 | N=C(N)NC(=O)OCc1ccnc(N2CCN(c3cncnc3)CC2)c1F [Example 1.017] |  |
| 9 | 2 | N#Cc1ccc(N2CCN(c3nccc(COC(=O)NC(=N)N)n3)CC2)cc1 [Example 1.027] |  |
| <4 | 2 | Cc1cc(N2CCN(c3nccc(COC(=O)NC(=N)N)c3F)CC2)ccn1 [Example 1.039] |  |
| 10 | 2 | N#CC1(c2ccccc2)CCN(c2nccc(COC(=O)NC(=N)N)c2F)CC1 [Example 1.050] |  |
| 20 | 2 | N#Cc1cccc(C2CCN(c3nccc(COC(=O)NC(=N)N)c3F)CC2)c1 [Example 1.051] |  |
| 14 | 1 | N#Cc1cccc(N2CCN(c3nccc(COC(=O)NC(=N)N)c3F)CC2)c1 [Example 1.054] |  |
| 16 | 2 | N#Cc1ccc(N2CCN(c3nccc(COC(=O)NC(=N)N)c3F)CC2)cc1 [Example 1.055] |  |
| 12 | 4 | N#Cc1ccc(N2CCN(c3nccc(COC(=O)NC(=N)N)c3F)CC2)nc1 [Example 1.056] |  |
| 18 | 4 | COc1cccc(C2=CCN(c3nccc(COC(=O)NC(=N)N)c3F)CC2)c1 [Example 1.058] |  |
| 11 | 4 | N#Cc1ccc(N2CCN(c3nccc(COC(=O)NC(=N)N)c3F)CC2)c(F)c1 [Example 1.083] |  |
| 85 | 4 | CC(=O)c1ccc(N2CCN(c3nccc(COC(=O)NC(=N)N)c3F)CC2)nc1 [Example 1.085] |  |
| 8 | 4 | N=C(N)NC(=O)OCc1ccnc(N2CCC(N3Cc4ccccc4C3=O)CC2)c1F [Example 1.089] |  |
| 15 | 3 | COC(=O)N1CCC(C2CCN(c3nccc(COC(=O)NC(=N)N)c3F)CC2)CC1 [Example 1.095] |  |
